Test results taken from PMC8016481, “Tachykinin signaling inhibits task-specific behavioral responsiveness in honeybee workers” (eLife, 2021).

Assays:
honeybee TRPR = experiment: Competitive binding of TRPs to TRPR in Sf21 cells (displacement of TAMRA-TRP2/TAMRA-TRP3); design: species or system Apis mellifera
ERK phosphorylation = ERK phosphorylation in brain of worker bees after TRP2 injection or TRP/TRPR knockdown (Western blot); type: in vivo, Apis mellifera ligustica; details: for ERK phosphorylation in brain: 6A
Description: Cells were seeded in 24-well plates and starved for 4 hr in serum-free medium to reduce background ERK1/2 activation and eliminate the effects of the change of medium. […] Protein concentration was determined according to the Bradford method using BSA as the standard and the absorption was measured at 595 nm (spectrophotometer DU800, Beckman Coulter, USA), then all the samples were kept in −80°C for further use. For Western blot, equal amounts of total cell lysate (20 μg/lane) were fractionated by SDS-PAGE (10%) and transferred to a PVDF membrane (Millipore, USA) using an iBlot dry blotting system (Invitrogen, USA). The membranes were blocked for 2 hr at room temperature and then incubated with rabbit monoclonal anti-pERK1/2 antibody (Cell Signaling Technology, USA) and anti-rabbit horseradish peroxidase-conjugated secondary antibody (Cell Signaling Technology) according to the manufacturers’ protocols. Antibody reactive bands were visualized using Pierce ECL western blotting substrate (Thermo Fisher Scientific, USA) followed by photographic film exposure. Total ERK1/2 was assessed as a loading control after p-ERK1/2 chemiluminescence detection. Quantification analyses were performed using Gel-Pro Analyzer 4.0 software (Media Cybernetics, USA).
Three independent replicate groups per condition were collected and Western blot analyses were performed: Honeybee brains were carefully dissected and frozen at −80°C until protein extraction. Brain protein extractions were carried out according to our previously described method with some modifications. Briefly, the […] were homogenized with lysis buffer (LB, 8 M urea, 2 M thiourea, 4% CHAPS, 20 mM Tris-base, 30 mM dithiothreitol). The mixture was homogenized for 30 min on ice and sonicated 20 s per 5 min during this time, then centrifuged at 12,000 g and 4°C for 10 min. Ice-cold acetone was added to the collected supernatants, and then the mixture was kept on ice for 30 min for protein precipitation. Subsequently, the mixture was centrifuged at 12,000 g and 4°C for 10 min. The supernatant was discarded and the pellets were resolved in LB and kept at −20°C for further use. Western blot analyses were performed as described in 'TRP/TRPR signaling targets: cAMP, Ca^2+, and ERK' section.

[1] = system: TRP2-mediated cAMP accumulation; experiment: Effect of PTX, CTX, YM-254890 and H89 on TRP2-mediated cAMP accumulation, HEK293 cells expressing TRPR; type: cell-based, Homo sapiens; details: TRP2, Control (no inhibitor)
TRPR [2] = system: TRPR
TRPR [3] = system: TRPR; remark: listed apart in the source

In the case of ALMGFQGVRa [TRP2], the competitive binding (honeybee TRPR; Log (M) -4, replicate 1) is reported as 26.6823, the competitive binding (honeybee TRPR; Log (M) -4, replicate 2) is reported as 24.9306 and the competitive binding (honeybee TRPR; Log (M) -4, replicate 3) is reported as 19.6578. For the same substance, the competitive binding (honeybee TRPR; Log (M) -5, replicate 1) was 24.5134, the competitive binding (honeybee TRPR; Log (M) -5, replicate 2) was 25.2301 and the competitive binding (honeybee TRPR; Log (M) -5, replicate 3) was 28.7532. For the same substance, the competitive binding (honeybee TRPR; Log (M) -6, replicate 1) was 31.3191, the competitive binding (honeybee TRPR; Log (M) -6, replicate 2) was 30.3643 and the competitive binding (honeybee TRPR; Log (M) -6, replicate 3) was 34.3614. The competitive binding (honeybee TRPR; Log (M) -7, replicate 1) was 40.7138, the competitive binding (honeybee TRPR; Log (M) -7, replicate 2) was 35.6042 and the competitive binding (honeybee TRPR; Log (M) -7, replicate 3) was 42.4738. For the same substance, the competitive binding (honeybee TRPR; Log (M) -8, replicate 1) was 59.0125, the competitive binding (honeybee TRPR; Log (M) -8, replicate 2) was 64.4899 and the competitive binding (honeybee TRPR; Log (M) -8, replicate 3) was 60.9813. The competitive binding (honeybee TRPR; Log (M) -9, replicate 1) was 79.5758, the competitive binding (honeybee TRPR; Log (M) -9, replicate 2) was 73.4731 and the competitive binding (honeybee TRPR; Log (M) -9, replicate 3) was 72.5477. The competitive binding (honeybee TRPR; Log (M) -10, replicate 1) was 80.4598, the competitive binding (honeybee TRPR; Log (M) -10, replicate 2) was 86.2073 and the competitive binding (honeybee TRPR; Log (M) -10, replicate 3) was 87.5948. The competitive binding (honeybee TRPR; Log (M) -11, replicate 1) was 96.7722, the competitive binding (honeybee TRPR; Log (M) -11, replicate 2) was 92.2369 and the competitive binding (honeybee TRPR; Log (M) -11, replicate 3) was 91.4817. The competitive binding (honeybee TRPR; Log (M) -12, replicate 1) was 92.3887, the competitive binding (honeybee TRPR; Log (M) -12, replicate 2) was 98.2368 and the competitive binding (honeybee TRPR; Log (M) -12, replicate 3) was 98.3115. For the same substance, the “ERK phosphorylation in brain” value (ERK phosphorylation; NB, replicate 1) was 0.0746, the “ERK phosphorylation in brain” value (ERK phosphorylation; NB, replicate 2) was 0.0650 and the “ERK phosphorylation in brain” value (ERK phosphorylation; NB, replicate 3) was 0.0783. The “ERK phosphorylation in brain” value (ERK phosphorylation; NF, replicate 1) was 0.5050, the “ERK phosphorylation in brain” value (ERK phosphorylation; NF, replicate 2) was 0.5454 and the “ERK phosphorylation in brain” value (ERK phosphorylation; NF, replicate 3) was 0.5933. For the same substance, the “ERK phosphorylation in brain” value (ERK phosphorylation; PF, replicate 1) was 0.2191, the “ERK phosphorylation in brain” value (ERK phosphorylation; PF, replicate 2) was 0.2416 and the “ERK phosphorylation in brain” value (ERK phosphorylation; PF, replicate 3) was 0.2036. The “level of phosphorylated ERK in brain” value (ERK phosphorylation; after injection into NBs, PFs and NFs, vs ddH2O) was “significantly increased”, the cAMP accumulation ([1]; Suppl.3A, replicate 1) was 9.157 and the cAMP accumulation ([1]; Suppl.3A, replicate 2) was 10.923. For the same substance, the cAMP accumulation ([1]; Suppl.3A, replicate 3) was 10.206, the cAMP accumulation ([1]; Suppl.3B, replicate 1) was 86.752 and the cAMP accumulation ([1]; Suppl.3B, replicate 2) was 90.385. For the same substance, the cAMP accumulation ([1]; Suppl.3B, replicate 3) was 95.777, the “cAMP and Ca2+ signaling, TRP2 compared with TRP3” value (TRPR [2]) was “induced higher cAMP and Ca^2+ signaling than TRP3” and the “increase of cAMP levels” value (TRPR [2]) was “more than 10 fold”. The “time by which ERK phosphorylation is near basal levels” value (TRPR [3]) was no more than 90 min and the “time of maximal ERK phosphorylation” value (TRPR [3]) was 2 min.
